Measurements taken from patent US10035790B2, “RORγ modulators” (BRISTOL-MYERS SQUIBB COMPANY, priority 2012, dated 2018).
Where two headings read alike, the source gives them in different places.

Molecular target: T1, ligand binding domain of human RORγ (A262-S507) (Homo sapiens, UniProt P51449)
T1 construct: made in house; host or cells: E. coli
T1 sequence (P51449 262-507): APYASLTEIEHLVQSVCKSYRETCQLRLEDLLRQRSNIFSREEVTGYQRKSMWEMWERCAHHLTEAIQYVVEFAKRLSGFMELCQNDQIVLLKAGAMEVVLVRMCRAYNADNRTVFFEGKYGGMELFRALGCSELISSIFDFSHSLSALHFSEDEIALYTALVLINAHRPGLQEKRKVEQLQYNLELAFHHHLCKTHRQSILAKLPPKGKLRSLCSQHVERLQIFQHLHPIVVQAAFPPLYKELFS
Assay: General RORγ SPA binding assay (competition with [3H]25-hydroxycholesterol)
Details: inhibition of [3H]25-hydroxycholesterol binding
Procedure, shortened: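 N-terminally His-tagged protein was expressed in E. coli and nickel-purified. Then 50 nM protein was preincubated with compound for 15 min at room temperature in PBS with 0.5% fatty acid free BSA, followed by radioligand for 15 min and copper His-tag SPA beads for 30 min. IC50 came from percent inhibition of binding.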

[1] = RORγ SPA binding assay, read-out: IC50

IC50 [1] [µM] | Compound | IC50 (IC50, RORγ SPA binding assay) [µM]
– | CC(O)(COc1ccnc(C(F)(F)F)n1)c1cnc(N)nc1C1CCN(C(=O)Oc2ccccc2F)CC1 (stereo not shown) [Compound D49, 2-Fluorophenyl 4-[2-amino-5-(1-hydroxy-1-methyl-2-{[2-(trifluoromethyl)pyrimidin-4-yl]oxy}ethyl)pyrimidin-4-yl]piperidine-1-carboxylate] | 0.0072
– | CC(O)(COc1ccnc(C(F)(F)F)n1)c1cnc(N)nc1C1CCN(C(=O)Oc2ccc(F)cc2)CC1 (stereo not shown) [Compound D50, 4-Fluorophenyl 4-[2-amino-5-(1-hydroxy-1-methyl-2-{[2-(trifluoromethyl)pyrimidin-4-yl]oxy}ethyl)pyrimidin-4-yl]piperidine-1-carboxylate] | 0.015
0.0063 | COCC(C)(OCc1cc(C)cc(C)c1)c1cnc(C)nc1C1CCN(C(=O)Cc2c(F)cccc2F)CC1 (stereo not shown) [Compound E1, 2-(2,6-Difluorophenyl)-1-(4-(5-(2-(3,5-dimethylbenzyloxy)-1-methoxypropan-2-yl)-2-methylpyrimidin-4-yl)piperidin-1-yl)ethanone] | –
0.0053 | CCOCC(C)(OCc1cc(C)cc(C)c1)c1cnc(C)nc1C1CCN(C(=O)Cc2c(F)cccc2F)CC1 (stereo not shown) [Compound E2, 2-(2,6-difluorophenyl)-1-(4-(5-(2-((3,5-dimethylbenzyl)oxy)-1-ethoxypropan-2-yl)-2-methylpyrimidin-4-yl)piperidin-1-yl)ethanone] | –
0.0062 | Cc1cc(C)cc(COC(C)(COCC(O)CO)c2cnc(C)nc2C2CCN(C(=O)Cc3c(F)cccc3F)CC2)c1 (stereo not shown) [Compound E3, 2-(2,6-difluorophenyl)-1-(4-(5-(1-(2,3-dihydroxypropoxy)-2-((3,5-dimethylbenzyl)oxy)propan-2-yl)-2-methylpyrimidin-4-yl)piperidin-1-yl)ethanone] | –
0.0167 | Cc1cc(C)cc(COC(C)(CO)c2cnc(C)nc2C2CCN(C(=O)Cc3c(F)cccc3F)CC2)c1 (stereo not shown) [Compound E4, 2-(2,6-difluorophenyl)-1-(4-(5-(2-((3,5-dimethylbenzyl)oxy)-1-hydroxypropan-2-yl)-2-methylpyrimidin-4-yl)piperidin-1-yl)ethanone] | –
0.0106 | Cc1cc(C)cc(COC(C)(C)c2cnc(C)nc2C2CCN(C(=O)Cc3c(F)cccc3F)CC2)c1 [Compound E5, 2-(2,6-Difluorophenyl)-1-(4-(5-(2-(3,5-dimethylbenzyloxy)propan-2-yl)-2-methylpyrimidin-4-yl)piperidin-1-yl)ethanone] | –
0.0457 | Cc1ncc(C(C)(C)OCc2cccc(Cl)c2)c(C2CCN(C(=O)Cc3c(F)cccc3F)CC2)n1 [Compound E6, 1-(4-(5-(2-((3-chlorobenzyl)oxy)propan-2-yl)-2-methylpyrimidin-4-yl)piperidin-1-yl)-2-(2,6-difluorophenyl)ethanone] | –
0.063 | Cc1ncc(C(C)(C)OCc2cccc(Cl)n2)c(C2CCN(C(=O)Cc3c(F)cccc3F)CC2)n1 [Compound E7, 1-(4-(5-(2-((6-chloropyridin-2-yl)methoxy)propan-2-yl)-2-methylpyrimidin-4-yl)piperidin-1-yl)-2-(2,6-difluorophenyl)ethanone] | –
0.079 | Cc1cc(C)cc(COCc2cnc(C)nc2C2CCN(C(=O)Cc3c(F)cccc3F)CC2)c1 [Compound E10, 2-(2,6-Difluorophenyl)-1-(4-(5-((3,5-dimethylbenzyloxy)methyl)-2-methylpyrimidin-4-yl)piperidin-1-yl)ethanone] | –
0.0192 | Cc1cc(C)cc(COC(C)c2cnc(C)nc2C2CCN(C(=O)Cc3c(F)cccc3F)CC2)c1 (stereo not shown) [Compound E11, 2-(2,6-Difluorophenyl)-1-(4-(5-(1-(3,5-dimethylbenzyloxy)ethyl)-2-methylpyrimidin-4-yl)piperidin-1-yl)ethanone] | –
0.011 | Cc1ncc(C(C)(F)COc2cccc(C(F)(F)F)n2)c(C2CCN(C(=O)Nc3c(F)cccc3F)CC2)n1 (stereo not shown) [Compound E12, N-(2,6-Difluorophenyl)-4-[5-(1-fluoro-1-methyl-2-{[6-(trifluoromethyl)pyridin-2-yl]oxy}ethyl)-2-methylpyrimidin-4-yl]piperidine-1-carboxamide] | –
0.0132 | Cc1ncc(C(C)(F)COc2cccc(C(F)(F)F)n2)c(C2CCN(C(=O)Nc3c(F)cccc3C(F)(F)F)CC2)n1 (stereo not shown) [Compound E13, 4-[5-(1-Fluoro-1-methyl-2-{[6-(trifluoromethyl)pyridin-2-yl]oxy}ethyl)-2-methylpyrimidin-4-yl]-N-[2-fluoro-6-(trifluoromethyl)phenyl]piperidine-1-carboxamide] | –
0.028 | Cc1cc(C)cc(OCC(C)(F)c2cnc(C)nc2C2CCN(C(=O)Cc3c(F)cccc3F)CC2)c1 (stereo not shown) [Compound E14, 4-{1-[(2,6-Difluorophenyl)acetyl]piperidin-4-yl}-5-{2-[(3,5-dimethylphenyl)oxy]-1-fluoro-1-methylethyl}-2-methylpyrimidine] | –
0.0565 | Cc1ncc(C(C)(F)CNc2ccnc(C(F)(F)F)n2)c(C2CCN(C(=O)Nc3c(F)cccc3F)CC2)n1 (stereo not shown) [Compound E15, N-(2,6-Difluorophenyl)-4-[5-(1-fluoro-1-methyl-2-{[2-(trifluoromethyl)pyrimidin-4-yl]amino}ethyl)-2-methylpyrimidin-4-yl]piperidine-1-carboxamide] | –
0.076 | Cc1ncc(C(C)(C)CNc2ccnc(C(F)(F)F)n2)c(C2CCN(C(=O)Cc3c(F)cccc3F)CC2)n1 [Compound F1, 2-(2,6-Difluorophenyl)-1-(4-(2-methyl-5-(2-methyl-1-(2-(trifluoromethyl)pyrimidin-4-ylamino)propan-2-yl)pyrimidin-4-yl)piperidin-1-yl)ethanone] | –
0.026 | Cc1ncc(C(C)(C)CNc2nccc(C(F)(F)F)n2)c(C2CCN(C(=O)Cc3c(F)cccc3F)CC2)n1 [Compound F2, 2-(2,6-difluorophenyl)-1-(4-(2-methyl-5-(2-methyl-1-((4-(trifluoromethyl)pyrimidin-2-yl)amino)propan-2-yl)pyrimidin-4-yl)piperidin-1-yl)ethanone] | –
0.0033 | Cc1ncc(C(C)(C)CNc2cccc(C(F)(F)F)n2)c(C2CCN(C(=O)Cc3c(F)cccc3F)CC2)n1 [Compound F3, N-[2-(4-{1-[(2,6-difluorophenyl)acetyl]piperidin-4-yl}-2-methylpyrimidin-5-yl)-2-methylpropyl]-6-(trifluoromethyl)pyridin-2-amine] | –
0.195 | COC(=O)C(C)(CNc1ccnc(C(F)(F)F)n1)c1cnc(C)nc1C1CCN(C(=O)Cc2c(F)cccc2F)CC1 (stereo not shown) [Compound F4, Methyl 2-(4-(1-(2-(2,6-difluorophenyl)acetyl)piperidin-4-yl)-2-methylpyrimidin-5-yl)-2-methyl-3-(2-(trifluoromethyl)pyrimidin-4-ylamino)propanoate] | –
0.101 | Cc1ncc(C(C)(CO)CNc2ccnc(C(F)(F)F)n2)c(C2CCN(C(=O)Cc3c(F)cccc3F)CC2)n1 (stereo not shown) [Compound F5, 2-(2,6-Difluorophenyl)-1-(4-(5-(1-hydroxy-2-methyl-3-(2-(trifluoromethyl)pyrimidin-4-ylamino)propan-2-yl)-2-methylpyrimidin-4-yl)piperidin-1-yl)ethanone] | –
0.0442 | Cc1cc(C)cc(CNCc2cnc(C)nc2C2CCN(C(=O)Cc3c(F)cccc3F)CC2)c1 [Compound F6, 2-(2,6-Difluorophenyl)-1-(4-(5-((3,5-dimethylbenzylamino)methyl)-2-methylpyrimidin-4-yl)piperidin-1-yl)ethanone] | –
0.0098 | Cc1cc(C)cc(CNC(c2cnc(C)nc2C2CCN(C(=O)Cc3c(F)cccc3F)CC2)C(F)(F)F)c1 (stereo not shown) [Compound F7, 2-(2,6-Difluorophenyl)-1-(4-(5-(1-(3,5-dimethylbenzylamino)-2,2,2-trifluoroethyl)-2-methylpyrimidin-4-yl)piperidin-1-yl)ethanone] | –
1.34 | Cc1ncc(C(C)(C)CNc2ccnc(C(F)(F)F)n2)c(C2CCN(C(=O)Nc3c(F)cccc3F)CC2)n1 [Compound F8, N-(2,6-Difluorophenyl)-4-(2-methyl-5-(2-methyl-1-(2-(trifluoromethyl)pyrimidin-4-ylamino)propan-2-yl)pyrimidin-4-yl)piperidine-1-carboxamide] | –
0.0299 | Cc1cc(C)cc(CNC(C)c2cnc(C)nc2C2CCN(C(=O)Cc3c(F)cccc3F)CC2)c1 (stereo not shown) [Compound F9, 2-(2,6-Difluorophenyl)-1-(4-(5-(1-(3,5-dimethylbenzylamino)ethyl)-2-methylpyrimidin-4-yl)piperidin-1-yl)ethanone] | –
0.0096 | Cc1ncc(C(=O)NNc2cccc(Cl)c2)c(C2CCN(C(=O)Cc3c(F)cccc3F)CC2)n1 [Compound G1, N-(3-Chlorophenyl)-4-(1-(2-(2,6-difluorophenyl)acetyl)piperidin-4-yl)-2-methylpyrimidine-5-carbohydrazide] | –
0.0046 | O=C(NNc1cccc(Cl)c1)c1cnc(C2CC2)nc1C1CCN(C(=O)Cc2c(F)cccc2F)CC1 [Compound G2, N′-(3-chlorophenyl)-2-cyclopropyl-4-(1-(2-(2,6-difluorophenyl)acetyl)piperidin-4-yl)pyrimidine-5-carbohydrazide] | –
0.0081 | CCc1ncc(C(=O)NNc2cccc(Cl)c2)c(C2CCN(C(=O)Cc3c(F)cccc3F)CC2)n1 [Compound G3, N′-(3-chlorophenyl)-4-(1-(2-(2,6-difluorophenyl)acetyl)piperidin-4-yl)-2-ethylpyrimidine-5-carbohydrazide] | –
0.0121 | Cc1nc(C)c(C(=O)NNc2cccc(Cl)c2)c(C2CCN(C(=O)Cc3c(F)cccc3F)CC2)n1 [Compound G4, N′-(3-chlorophenyl)-4-(1-(2-(2,6-difluorophenyl)acetyl)piperidin-4-yl)-2,6-dimethylpyrimidine-5-carbohydrazide] | –
